Source: patent USRE37979E1, “Pyrimidine derivatives and anti-viral agent containing the same as active ingredient thereof” (priority 1989, dated 2003)
pIC50: −log10 of the molar value.

These compounds were tested on MT-4 cells (assay: Cytotoxicity to MT-4 cells not infected with HIV). Details: 5 days incubation, concentration at which 50% of the MT-4 cells were destroyed.
Format: cell-based
Method: (§1) In RPMI 1640 DM culture medium containing 20 mM of Hepes buffer solution, 10% fetal bovine serum and 20 μg/ml of gentamycin, 3×10^4 MT-4 cells (human T cell clone which is destroyed by the infection of HIV) were infected with HIV in an amount of 100 times as large as expected to cause 50% infection of the cells. Immediately thereafter, a predetermined amount of sample was added to the culture medium using 50 mg/ml sample solutions in dimethyl sulfoxide and the cells were cultured at 37° C.
(§2) After 5 days of incubation, the number of existing cells was counted to determine the concentration of the compound for preventing the death of 50% of the MT-4 cells. Separately, MT-4 cells were cultured in the same way as above except that they were not infected with HIV to determine the concentration of the compound at which 50% of the MT-4 cells were destroyed.
“1-(4-hydroxybutyl) -6-phenylthiothymine [Compound 31]” was tested, and the “50% cytotoxic concentration to MT-4 cells” value was 249 µM.

Each compound was assayed on HIV (assay: Inhibitory activity for HIV infection (protection of HIV-infected MT-4 cells from death)). Details: 5 days incubation at 37° C., concentration preventing the death of 50% of the MT-4 cells.
Format: cell-based
Method: Inhibitory activity for HIV infection
as §1, §2
“1-(4-hydroxybutyl) -6-phenylthiothymine [Compound 31]” was tested, and the pIC50 was 4.89.
Work on “1-(methylthiomethyl)-6-phenylthiothymine [Compound 32]” yielded a pIC50 of 5.92.
With “1-[(2-acetoxyethoxy)methyl]-6-phenylthiothymine [Compound 2]” the pIC50 was 5.17.
With “1-[(2-phenylcarbamoyloxyethoxy) methyl]-6-m-tolylthiothymine [Compound 16]” the pIC50 was 4.68.
Compound “1-butyl-5-ethyl-6-phenylthiouracil [Compound 252]” has a pIC50 of 7.80.
“1-ethoxymethyl-5-ethyl-6-phenylthiouracil [Compound 247]” showed a pIC50 of 7.80.
In the case of `COCn1c(Sc2ccccc2)c(C)c(=O)[nH]c1=O` [Compound 22, 1-(methoxymethyl)-6-phenylthiothymine], the pIC50 was 5.68.

Same assay, conditions: Human immunodeficiency virus 1, MT4, 120 h, 5 days incubation at 37° C., concentration preventing the death of 50% of the MT-4 cells
`CC(=O)OCCOCn1c(Sc2ccccc2)c(C)c(=O)[nH]c1=S` [Compound 1, 1-[(2-acetoxyethoxy)methyl]-6-phenylthio-2-thiothymine] showed a pIC50 of 5.55.
`CCOCn1c(Sc2ccccc2)c(CC)c(=O)[nH]c1=S` [Compound 358, 1-ethoxymethyl-5-ethyl-6-phenylthio-2-thiouracil] was tested, and the pIC50 was 7.59.
For `CCOCn1c(Cc2ccccc2)c(CC)c(=O)[nH]c1=O` [Compound 472, 6-benzyl-1-ethoxymethyl-5-ethyluracil], the pIC50 was 7.39.
